Source: ChEMBL document CHEMBL3576762, “Ribifolin, an orbitide from Jatropha ribifolia, and its potential antimalarial activity” (J Nat Prod, 2015)
Where a SMILES comes first, the peptide text is derived from it.

Legend:
Plasmodium falciparum = assay: Antimalarial activity against chloroquine-sensitive Plasmodium falciparum 3D7 infected in erythrocytes by Giemsa-stained blood smears under microscopy; format: functional, organism-based
HEK-293T = assay: Cytotoxicity against human HEK293T cells at 0.001 to 100 uM after 48 hrs by MTT assay; format: cell-based

Row | IC50 (Plasmodium falciparum) [µM] | Compound | Activity (HEK-293T)
1 | 16 | CC[C@H](C)[C@@H]1NC(=O)[C@H]([C@@H](C)O)NC(=O)CNC(=O)[C@H](Cc2ccccc2)NC(=O)[C@H](C(C)C)NC(=O)CNC(=O)[C@H](CC(C)C)NC1=O (cyclo(FGTILGV)) | 
2 | 2 | C[C@@H](O)[C@@H]1NC(=O)CNC(=O)[C@H](Cc2ccccc2)NC(=O)[C@H](Cc2ccccc2)NC(=O)CNC(=O)[C@H](Cc2ccccc2)NC(=O)[C@H](Cc2ccccc2)NC1=O (cyclo(FFGFFGT)) | 

Continued, compound first:

Row | Compound | IC50 (Plasmodium falciparum) [µM] | Activity (HEK-293T)
3 | CC[C@H](C)[C@@H]1NC(=O)CNC(=O)[C@H](CC(C)C)NC(=O)[C@H]([C@@H](C)CC)NC(=O)[C@H]([C@@H](C)CC)NC(=O)[C@H](CO)NC(=O)CNC(=O)[C@H](CC(C)C)NC1=O (cyclo(GILGSIIL)) | 42 | Non-toxic
4 | CC[C@H](C)[C@@H]1NC(=O)[C@H](C)NC(=O)[C@H](CC(C)C)NC(=O)[C@H]([C@@H](C)CC)NC(=O)[C@@H]2CCCN2C(=O)[C@H]([C@@H](C)CC)NC(=O)CNC(=O)[C@H](CCSC)NC1=O (cyclo(AIMGIPIL)) | 9 | 
5 | H-ILGSIILG-OH | 519 | Non-toxic
6 | CC[C@H](C)[C@@H]1NC(=O)CNC(=O)[C@H](CC(C)C)NC(=O)[C@H](CC(C)C)NC(=O)[C@H]([C@@H](C)CC)NC(=O)[C@@H]2CCCN2C(=O)[C@H](CO)NC(=O)CNC(=O)[C@H](CC(C)C)NC1=O (cyclo(GILGSPILL)) | 10000 | 
